This note sets out measurements from article PMC3711460 (The Journal of neuroscience : the official journal of the …, 2013).

One assay deals with T1, TAAR3 (Mus musculus, UniProt Q5QD16).
T1 sequence (Q5QD16 1-343): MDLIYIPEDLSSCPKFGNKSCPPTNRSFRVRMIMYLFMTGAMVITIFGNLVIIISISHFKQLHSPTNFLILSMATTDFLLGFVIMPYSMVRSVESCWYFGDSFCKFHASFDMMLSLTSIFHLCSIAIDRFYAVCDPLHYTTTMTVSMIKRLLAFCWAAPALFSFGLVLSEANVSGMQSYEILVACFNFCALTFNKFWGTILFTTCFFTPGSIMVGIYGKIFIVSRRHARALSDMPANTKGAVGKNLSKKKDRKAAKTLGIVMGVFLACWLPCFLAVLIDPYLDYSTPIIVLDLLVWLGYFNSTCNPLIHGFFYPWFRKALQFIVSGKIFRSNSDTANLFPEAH
In kind it is cell-based.

Another assay has as its target T2, human TAAR5 (Homo sapiens, UniProt O14804).
T2 sequence (O14804 1-337): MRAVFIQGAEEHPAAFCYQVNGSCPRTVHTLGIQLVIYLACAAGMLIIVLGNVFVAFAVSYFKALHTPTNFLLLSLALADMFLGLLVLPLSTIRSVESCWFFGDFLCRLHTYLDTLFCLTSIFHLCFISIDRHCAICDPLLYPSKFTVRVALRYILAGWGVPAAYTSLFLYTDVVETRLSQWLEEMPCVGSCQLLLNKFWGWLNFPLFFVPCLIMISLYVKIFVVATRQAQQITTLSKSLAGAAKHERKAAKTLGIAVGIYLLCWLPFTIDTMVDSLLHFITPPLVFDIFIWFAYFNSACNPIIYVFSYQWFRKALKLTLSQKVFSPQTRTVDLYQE
It counts as cell-based.

As to `NC1CCCCC1` [CHX, cyclohexylamine], the EC50 (usually the concentration giving half of the maximal effect) on TAAR3 came out at 270 nM.
At human TAAR5, `CCN(C)C` [DMEA, N,N-dimethylethylamine] had an EC50 of 1200 ± 600 nM.
The compound `CC(C)CCN` [IPA, isopentylamine] returned an EC50 on TAAR3 of 15 nM.
